Molecules are shown by their SMILES.

The target in one assay is T1, purified ITK (Invitrogen PV3875) (Homo sapiens, UniProt Q08881).
T1 construct: purchased Invitrogen PV3875
T1 sequence (Q08881 1-620): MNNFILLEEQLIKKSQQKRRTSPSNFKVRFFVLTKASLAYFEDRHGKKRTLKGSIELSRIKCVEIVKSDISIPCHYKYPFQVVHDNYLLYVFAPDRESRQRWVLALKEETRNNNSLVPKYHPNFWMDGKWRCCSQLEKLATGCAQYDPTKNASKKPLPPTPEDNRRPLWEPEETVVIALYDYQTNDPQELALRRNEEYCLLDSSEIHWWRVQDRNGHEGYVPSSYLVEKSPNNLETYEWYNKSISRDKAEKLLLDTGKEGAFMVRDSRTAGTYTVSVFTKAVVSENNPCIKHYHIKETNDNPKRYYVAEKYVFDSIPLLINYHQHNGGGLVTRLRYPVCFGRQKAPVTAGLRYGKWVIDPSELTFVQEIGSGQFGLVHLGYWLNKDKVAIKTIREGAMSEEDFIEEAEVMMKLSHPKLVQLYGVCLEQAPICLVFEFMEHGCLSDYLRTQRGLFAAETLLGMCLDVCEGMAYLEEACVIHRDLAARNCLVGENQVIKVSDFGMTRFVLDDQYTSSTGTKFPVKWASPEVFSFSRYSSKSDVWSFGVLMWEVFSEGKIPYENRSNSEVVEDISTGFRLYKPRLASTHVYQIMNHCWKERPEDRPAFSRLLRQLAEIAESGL
Description: ITK peptide phosphorylation assay (Caliper LabChip or LCMS). It is filed as biochemical. The settings on record: Table 1, Examples 141-279. The gist of the method:
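Ki values come from Morrison quadratic fits of activity versus inhibitor concentration, adjusted for ATP-competitive inhibition against ATP/Km,app. Substrate and phosphopeptide from purified ITK reactions were resolved either microfluidically (Caliper, EDTA stop) or by LC-MS MRM (TCA stop).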
By Ki is commonly meant a dissociation constant, usually derived from enzyme kinetics or from competition with a known ligand. Lower therefore signals a stronger hold on the target. `Cc1cccc(C(CCN(C)C)n2cc(NC(=O)c3n[nH]c4cc(-c5cn[nH]c5)ccc34)cn2)c1` (centres unmarked) [Example 246, N-[1-[3-(dimethylamino)-1-(m-tolyl)propyl]py-razol-4-yl]-6-(1H-pyrazol-4-yl)-1H-indazole-3-carboxamide] had a Ki of 0.0734 nM.
Compound `COc1cncc(-c2ccc3c(C(=O)Nc4cnn(Cc5cccc(C#N)c5)c4)n[nH]c3c2)c1` [Example 166, N-[1-[(3-cyanophenyl)meth-yl]pyrazol-4-yl]-6-(5-methoxy-3-pyridyl)-1H-indazole-3-carboxamide] showed a Ki of 7.74 nM.
The same measure, in the same setting: the result for `CN1CCC(Cn2cc(NC(=O)c3n[nH]c4cc(-c5cn[nH]c5)ccc34)cn2)C1` (centres unmarked) [Example 254, N-[1-[(1-methylpyrrolidin-3-yl)methyl]pyrazol-4-yl]-6-(1H-pyrazol-4-yl)-1H-indazole-3-carboxamide] reads 6.5 nM.
Turning to `O=C(Nc1cnn(CC2CNC2)c1)c1n[nH]c2cc(-c3cn[nH]c3)ccc12` [Example 262, N-[1-(azetidin-3-ylmethyl)pyrazol-4-yl]-6-(1H-pyrazol-4-yl)-1H-indazole-3-carboxamide], the affinity corresponds to a Ki of 4.69 nM.
In turn, `CN1CCN(c2ccc3c(C(=O)Nc4cnn(Cc5cccc(C#N)c5)c4)n[nH]c3c2)CC1` [Example 176, N-[1-[(3-cyanophenyl)meth-yl]pyrazol-4-yl]-6-(4-methylpiperazin-1-yl)-1H-indazole-3-carboxamide] came in with a Ki of 374 nM.
For the compound `CNc1cncc(-c2ccc3c(C(=O)Nc4cnn(Cc5ccccc5)c4)n[nH]c3c2)n1` [Example 189, N-(1-benzylpyrazol-4-yl)-6-[6-(methylamino)py-razin-2-yl]-1H-indazole-3-carboxamide], the Ki is 24.8 nM.
On the same count and under the same terms, then `CN1CCC(Nc2ccc3[nH]nc(C(=O)Nc4cnn(Cc5cccc(C#N)c5)c4)c3c2)CC1` [Example 184, N-[1-[(3-cyanophenyl)meth-yl]pyrazol-4-yl]-5-[(1-methyl-4-piperidyl)amino]-1H-indazole-3-carboxamide], with 1.33 nM; and `COc1cncc(-c2ccc3c(C(=O)Nc4cnn(Cc5ccccn5)c4)n[nH]c3c2)c1` [Example 221, 6-(5-methoxy-3-pyridyl)-N-[1-(2-pyridylmethyl)py-razol-4-yl]-1H-indazole-3-carboxamide], with 51.4 nM; and `N#Cc1cccc(Cn2cc(NC(=O)c3n[nH]c4cc(-c5cc[nH]n5)c(F)cc34)cn2)c1` [Example 155, N-[1-[(3-cyanophenyl)meth-yl]pyrazol-4-yl]-5-fluoro-6-(1H-pyrazol-3-yl)-1H-indazole-3-carboxamide], with 99.9 nM.
Consider `Cc1cc2c(C(=O)Nc3cnn(Cc4cccc(C#N)c4)c3)n[nH]c2cc1-c1ccc(N)nc1` [Example 150, 6-(6-amino-3-pyridyl)-N-[1-[(3-cyanophenyl)meth-yl]pyrazol-4-yl]-5-methyl-1H-indazole-3-carboxamide], for which the Ki amounted to 20.1 nM.

The assay is the same for the next values; noted with them: Table 2, Examples 1-140, class symbols.
Consider `COc1ccc(-c2ccc3c(C(=O)Nc4cnn(Cc5cccc(C#N)c5)c4)n[nH]c3c2)cn1` [Example 117, N-(1-(3-cyanobenzyl)-1H-pyrazol-4-yl)-6-(6-methoxypyridin-3-yl)-1H-indazole-3-carboxamide], for which the Ki fell in the range of 1 to 100 nM.
`O=C(Nc1cnn(Cc2csc(-c3ccccc3)n2)c1)c1n[nH]c2cc(-c3cn[nH]c3)ccc12` [Example 20, 6-(1H-Pyrazol-4-yl)-1H-indazole-3-carboxylic acid [1-(2-phenyl-thiazol-4-ylmethyl)-1H-pyrazol-4-yl]-amide] showed a Ki of 1 to 100 nM.
For the compound `CC[C@@H](c1ccccc1)n1cc(NC(=O)c2n[nH]c3cc(-c4ccncc4)ccc23)cn1` [Example 140, (S)—N-(1-(1-phenylpropyl)-1H-pyrazol-4-yl)-6-(pyridin-4-yl)-1H-indazole-3-carboxamide], the Ki lay within 1 to 100 nM.
Consider `COc1cccc2c(C(=O)Nc3cnn(Cc4cccc(C#N)c4)c3)n[nH]c12` [Example 5, N-(1-(3-cyanobenzyl)-1H-pyrazol-4-yl)-7-methoxy-1H-indazole-3-carboxamide], for which the Ki is greater than 100 nM.
The compound `CC(C)(O)c1cccc(Cn2cc(NC(=O)c3n[nH]c4cc(-c5cn[nH]c5)ccc34)cn2)c1` [Example 47, 6-(1H-Pyrazol-4-yl)-1H-indazole-3-carboxylic acid {1-[3-(1-hydroxy-1-methyl-ethyl)-benzyl]-1H-pyrazol-4-yl}-amide] displayed an inhibition constant (Ki) of 1 to 100 nM.
The compound `N#Cc1ccc(Cn2cc(NC(=O)c3n[nH]c4cc(-c5cn[nH]c5)ccc34)cn2)s1` [Example 27, 6-(1H-Pyrazol-4-yl)-1H-indazole-3-carboxylic acid [1-(5-cyano-thiophen-2-ylmethyl)-1H-pyrazol-4-yl]-amide] displayed a Ki of 0.01 to 1 nM.

Staying with this assay, now noted: Table 3, specific values for certain examples.
On to `COc1cccc2c(C(=O)Nc3cnn(Cc4cccc(C#N)c4)c3)n[nH]c12` [Example 5, N-(1-(3-cyanobenzyl)-1H-pyrazol-4-yl)-7-methoxy-1H-indazole-3-carboxamide], for which the Ki is greater than 3500 nM.

The values above are taken from patent publication US20140309210A1, “INDAZOLE COMPOUNDS, COMPOSITIONS AND METHODS OF USE THEREOF” (Genentech, Inc., priority 2011, published 2014).
